Results on 46 compounds are retold here after ChEMBL document CHEMBL1158634, “Towards Gram-positive antivirulence drugs: new inhibitors of Streptococcus agalactiae Stk1” (Bioorg Med Chem Lett, 2010).

What is called pIC50 is −log10 of the IC50, conventionally taken in molar units. The low end stands for a large IC50, the high end for a small IC50.

This assay can be described thus: Inhibition of Streptococcus agalactiae Stk1 preincubated for 30 mins.

Each structure is given as a SMILES string. pIC50: −log10 of the molar value. Where only a bound is given, the exact number is not on record here.

In turn, `Cn1cnc2c(NCCCO)nc(-c3cccc(C(=O)NCCCc4ccccc4)c3)nc21` gave a negative-log IC50 (pIC50) of under 3.52.
In the case of `Cc1cccc(NC(=O)Nc2cccc(-c3nc(NCCCO)c4ncn(C)c4n3)c2)c1`, the pIC50 was 6.70.
Turning to `Cn1cnc2c(NCCCO)nc(-c3cccc(Cl)c3)nc21`, the negative logarithm of the IC50 (pIC50) was 5.52.
Next, `Cn1cnc2c(NCCCO)nc(-c3cccc(N)c3)nc21`: 4.89.
In turn, `Cn1cnc2c(NCCCO)nc(-c3cccc(C(F)(F)F)c3)nc21` had a negative logarithm of the IC50 (pIC50) of 5.40.
Next, `CCCNc1nc(-c2cccc(NC(=O)Nc3cccc(Cl)c3)c2)nc2c1ncn2C`: 6.52.
Next, `CN(CCCO)c1nc(-c2cccc(NC(=O)Nc3cccc(Cl)c3)c2)nc2c1ncn2C`: under 3.52; `Cn1cnc2c(NCCCO)nc(-c3cccc(C(=O)O)c3)nc21`: 4.41.
Next, `Cn1cnc2c(NCCCO)nc(-c3cccc(NC(=O)Nc4ccccc4Cl)c3)nc21`: 4.80.
`Cn1cnc2c(NCCCO)nc(-c3cccc(NC(=O)Nc4ccccc4)c3)nc21`: the negative logarithm of the IC50 (pIC50) was 6.00. Compared with the last compound, the pIC50 is 1.20 log units higher.
Take `CC(=O)Nc1cccc(NC(=O)Nc2cccc(-c3nc(NCCCO)c4ncn(C)c4n3)c2)c1`: the pIC50 was 6.03.
`Cn1cnc2c(N)nc(-c3cccc(NC(=O)Nc4cccc(Cl)c4)c3)nc21` showed a pIC50 of 5.89.
Next, `Cn1cnc2c(NCCCO)nc(-c3cccc(C(=O)NCCc4cccnc4)c3)nc21`: 4.42.
Next, `Cn1cnc2c(NCCCO)nc(-c3cccc(NC(=O)Nc4cccc(N)c4)c3)nc21`: 6.14; `CCn1cnc2c(NCCCO)nc(Cl)nc21`: 3.76; `Cn1cnc2c(NCCCO)nc(-c3cccc(NC(=O)Nc4ccc5c(c4)OCO5)c3)nc21`: 6.55.
Next, `Cn1cnc2c(NCCCO)nc(-c3cccc(NC(=O)Nc4cc(Cl)cc(Cl)c4)c3)nc21`: 6.80; `Cn1cnc2c(NCCCO)nc(-c3cccc(NC(N)=O)c3)nc21`: 4.92; `Cn1cnc2c(NCCCO)nc(-c3cccc(NC(=O)Nc4cccc(Cl)c4)c3)nc21`: 6.49.
For the compound `Cn1cnc2c(NCCCO)nc(-c3cccc(NC(=O)Nc4cccc(C#N)c4)c3)nc21`, the pIC50 is 6.31. This pIC50 and that of the compound before are within 0.2 log units of each other.
Consider `COCCCNc1nc(-c2cccc(NC(=O)Nc3cccc(Cl)c3)c2)nc2c1ncn2C`, for which the negative logarithm of the IC50 (pIC50) is 6.55.
Next, `Cn1cnc2c(NCCCO)nc(N3CCOCC3)nc21`: 4.18; `Cn1cnc2c(NCCCO)nc(-c3ccccc3)nc21`: 4.92.
Next, `Cn1cnc2c(NCCCO)nc(-c3cccc(NC(=O)Nc4cccnc4)c3)nc21`: 6.02; `Cn1cnc2c(NCCCO)nc(-c3cccc(NC(=O)Nc4cccc(S(C)(=O)=O)c4)c3)nc21`: 6.19.
Next, `CC(C)n1cnc2c(NCCCO)nc(Cl)nc21`: under 3.52.
Compound `Cn1cnc2c(NCCO)nc(-c3cccc(NC(=O)Nc4cccc(Cl)c4)c3)nc21` showed a pIC50 of 6.49.
As for `CC(=O)Nc1cccc(-c2nc(NCCCO)c3ncn(C)c3n2)c1`, the pIC50 is 4.74.
Next, `Cn1cnc2c(NCCCO)nc(-c3cccc(NC(=O)Nc4ccsc4)c3)nc21`: 5.70; `Cn1cnc2c(NCCCO)nc(-c3cccc(NC(=O)Nc4c(Cl)cccc4Cl)c3)nc21`: 4.23; `Cn1cnc2c(NCCCO)nc(-c3cccc([N+](=O)[O-])c3)nc21`: 5.52.
Next, `Cn1cnc2c(NCCCO)nc(-c3cccc(NC(=O)NCc4ccccc4)c3)nc21`: 5.12; `Cn1cnc2c(NCCCO)nc(-c3cccc(NS(C)(=O)=O)c3)nc21`: 4.82; `Cn1cnc2c(NCCCO)nc(-c3cccc(NC(=O)Nc4ccc(Cl)cc4)c3)nc21`: 5.80.
Next, `OCCCNc1nc(Cl)nc2[nH]cnc12`: under 3.52; `Cn1cnc2c(NCCCO)nc(Cl)nc21`: 4.18.
Consider `CCCNC(=O)Nc1cccc(-c2nc(NCCCO)c3ncn(C)c3n2)c1`, for which the pIC50 was 4.74.
Regarding `Cn1cnc2c(NCCCO)nc(-c3cccnc3)nc21`, the pIC50 is 4.47.
Next, `Cn1cnc2c(NCCCO)nc(-c3cccc(-c4ccccc4)c3)nc21`: 5.40; `Cn1cnc2c(NCCCO)nc(-c3cccc(NS(=O)(=O)Cc4ccccc4)c3)nc21`: 4.66; `COc1ccc(NC(=O)Nc2cccc(-c3nc(NCCCO)c4ncn(C)c4n3)c2)cc1`: 6.20.
Next, `Cn1cnc2c(NCCCO)nc(Nc3ccccc3)nc21`: 4.59.
Next, `Cn1cnc2c(NCCCO)nc(NCc3ccccc3)nc21`: 4.32; `Cn1cnc2c(NCCCO)nc(N3CCNCC3)nc21`: 3.96.
`Cn1cnc2c(NCCCN)nc(-c3cccc(NC(=O)Nc4cccc(Cl)c4)c3)nc21` showed a pIC50 of 6.32. Compared with the last compound, the pIC50 is 2.36 log units higher.
`Cn1cnc2c(NCCCO)nc(-c3cccc(C(=O)N4CCC(c5ccccc5)CC4)c3)nc21`: the negative-log IC50 (pIC50) is 3.76. This pIC50 lies 2.56 log units lower than the previous one.
